Experiments:
[1] = In vitro plasma half-life; format: in vitro ADME; details: mouse, plasma, murine plasma, read-out: Plasma T1/2 (converted)
Description: (§1) 12M11 (2 μM final concentration) was incubated with murine plasma and saline for 0-1440 minutes. Reactions were quenched with 200 μl (1:2) of methanol containing 0.1% formic acid and 200 ng/ml IS (IS final conc.=100 ng/mL). Samples were vortexed for 15 seconds, incubated at RT for 10 minutes and spun for 5 minutes at 13.2K rpm. Supernatant ([…]) was then transferred to an eppendorf tube and spun in a table top, chilled centrifuge for 5 minutes at 13.2K rpm. Supernatant (800 μL) was transferred to an HPLC vial (w/out insert). Analyzed by Qtrap 3200 mass spectrometer. These methods were used data obtained in the FIGS. 22C and 22F.

Mut6 = assay: Cytotox testing (CellTiter-Glo ATP assay) in Mut6 cells; format: cell-based, mouse; details: Mus musculus, 96 h, Mut6 cells, 4 days, CellTiter-Glo; read-out: Activity in Mut6 [EC50]
Description: Mut6 tumor cells were cultured in DMEM/F12 media supplemented by EGF (10 ng/mL), basic FGF (10 ng/mL), heparin (4 ug/mL), glucose (total 21 mM), NaHCO3 (113 μg/mL), Hepes (119 μg/mL), glutamine (2 mM), sodium pyruvate (1 mM), N2 supplement (ThermoFisher Gibco 17502-048, 100×, at 100-fold dilution), B27 supplement (ThermoFisher Gibco 12587-010, 50×, at 100-fold dilution), and penicillin/streptomycin (ThermoFisher, final 1%). Cells were maintained in Ultra-low attachment plate (Corning) as sphere-forming cells. For ATP assays and protein/RNA isolation, cells were plated into 96-well plates or 6-well plated that were coated with poly-lysine (Sigma P6407, 10 μg/mL in PBS, 4 hr at 37° C.) and laminin (ThermoFisher 23017015, ˜5 mg/L in PBS, overnight at 37° C.). MEFs and Astrocytes were cultured in DMEM supplemented with 10% FBS and 1% Penicillin/Streptomycin.
2,000 cells were plated into each well of 96-well plates. About 3 hours later, cells were treated by 12M11, at 800-fold dilution (4 mM stock was diluted into 5 μM final concentration). […] CellTiter-Glo assay (Promega) was performed according to manufacturer's instructions, by adding 20 μL of reagent into each well. Luminescence signal was detected by the PolarStar plate reader (BMG Labtech). Experiments were performed in quadruplicate, and results are presented with mean average −/+ standard deviation. EC505 were calculated by GraphPad Prism6 software.
The compounds described herein were tested using a cell-based cytotoxicity assay against neuronal stem cells in Mut6, which is a mouse glioblastoma model cell line.

[2] = Buffer (saline) stability; format: physicochemical
Description: as §1

SMILES | half-life at 2 μM [1] [min] | EC50 (Mut6) [nM] | Buffer Stability [2] [%]
CC(C)[C@@H]1CC[C@@H](C)CC1OC(=O)Cn1c(-c2cc(Cl)cc(Cl)c2)[n+](C)c2ccccc21.[I-] (some centres unmarked) | 39 | 100 to 1000 | 91
COc1ccc(-c2n(CC(=O)OC3C[C@H](C)CC[C@H]3C(C)C)c3ccccc3[n+]2C)cc1.[I-] (some centres unmarked) | 15 | 100 to 1000 | 100
CCN(CC)c1ccc(-c2n([C@@H](C(=O)OC3C[C@H](C)CC[C@H]3C(C)C)C3CC3)c3ccccc3[n+]2C)cc1 (some centres unmarked) |  | < 100 | 
CC(C)[C@@H]1CC[C@@H](C)CC1OC(=O)[C@@H](C)n1c(-c2ccc(N(C)C)c(C(F)(F)F)c2)[n+](C)c2ccccc21 (some centres unmarked) |  | < 100 | 
CC(C)[C@@H]1CC[C@@H](C)CC1OC(=O)[C@@H](C1CC1)n1c(-c2ccc(N(C)C)c(C(F)(F)F)c2)[n+](C)c2ccccc21 (some centres unmarked) |  | 100 to 1000 | 
Cc1cc(-c2n([C@H](C)C(=O)OC3C[C@H](C)CC[C@H]3C(C)C)c3ccccc3[n+]2C)ccc1N(C)C (some centres unmarked) |  | < 100 | 
Cc1cc(-c2n([C@@H](C(=O)OC3C[C@H](C)CC[C@H]3C(C)C)C3CC3)c3ccccc3[n+]2C)ccc1N(C)C (some centres unmarked) |  | < 100 | 
CC(C)[C@@H]1CC[C@@H](C)CC1OC(=O)[C@@H](C)n1c(-c2ccc(N(C3CC3)C3CC3)cc2)[n+](C)c2ccccc21 (some centres unmarked) |  | < 100 | 
CCCCN(CCCC)c1ccc(-c2n([C@H](C)C(=O)OC3C[C@H](C)CC[C@H]3C(C)C)c3ccccc3[n+]2C)cc1 (some centres unmarked) |  | < 100 | 
CC(C)[C@@H]1CC[C@@H](C)CC1OC(=O)[C@@H](C1CC1)n1c(-c2ccc(N(C3CC3)C3CC3)cc2)[n+](C)c2ccccc21 (some centres unmarked) |  | < 100 | 
CCCCN(CCCC)c1ccc(-c2n([C@@H](C(=O)OC3C[C@H](C)CC[C@H]3C(C)C)C3CC3)c3ccccc3[n+]2C)cc1 (some centres unmarked) |  | < 100 | 
CCc1n(CC(=O)OC2C[C@H](C)CC[C@H]2C(C)C)c2ccncc2[n+]1C (some centres unmarked) |  | 100 to 1000 | 
CCc1n(CC(=O)OC2C[C@H](C)CC[C@H]2C(C)C)c2ncccc2[n+]1C (some centres unmarked) |  | 100 to 1000 | 
CCc1n(CC(=O)OC2C[C@H](C)CC[C@H]2C(C)C)c2cccnc2[n+]1C (some centres unmarked) |  | 100 to 1000 | 
CCc1n(CC(=O)OC2C[C@H](C)CC[C@H]2C(C)C)c2cc(OC)ccc2[n+]1C (some centres unmarked) |  | < 100 | 
CCc1n(CC(=O)OC2C[C@H](C)CC[C@H]2C(C)C)c2ccc(OC)cc2[n+]1C (some centres unmarked) |  | < 100 | 
CCc1n(CC(=O)OC2C[C@H](C)CC[C@H]2C(C)C)c2cc(C)ccc2[n+]1C (some centres unmarked) |  | < 100 | 

SMILES | half-life at 2 μM [1] [min] | EC50 (Mut6) [nM] | Buffer Stability [2] [%]
CC[n+]1c(-c2ccc(N(C)C)cc2)n(CC(=O)OC2C[C@H](C)CC[C@H]2C(C)C)c2ccccc21 (some centres unmarked) |  | < 100 | 
C#CC[n+]1c(-c2ccc(N(C)C)cc2)n(CC(=O)OC2C[C@H](C)CC[C@H]2C(C)C)c2ccccc21 (some centres unmarked) |  | < 100 | 
C=CC[n+]1c(-c2ccc(N(C)C)cc2)n(CC(=O)OC2C[C@H](C)CC[C@H]2C(C)C)c2ccccc21 (some centres unmarked) |  | < 100 | 
CC(C)[C@@H]1CC[C@@H](C)CC1OC(=O)Cn1c(-c2ccc(N(C)C)cc2)[n+](Cc2ccccc2)c2ccccc21 (some centres unmarked) |  | < 100 | 
CC(C)[C@@H]1CC[C@@H](C)CC1OC(=O)Cn1c(-c2ccc(N(C)C)cc2)[n+](CC2CC2)c2ccccc21 (some centres unmarked) |  | < 100 | 
CC(C)[C@@H]1CC[C@@H](C)CC1OC(=O)Cn1c(-c2ccc(Cl)cc2)[n+](C)c2ccccc21 (some centres unmarked) |  | 100 to 1000 | 
CC(C)[C@@H]1CC[C@@H](C)CC1OC(=O)Cn1c(-c2ccc(Cl)c(Cl)c2)[n+](C)c2ccccc21 (some centres unmarked) |  | 100 to 1000 | 
CC(C)[C@@H]1CC[C@@H](C)CC1OC(=O)Cn1c(-c2ccc(F)cc2)[n+](C)c2ccccc21 (some centres unmarked) |  | 100 to 1000 | 
CC(C)[C@@H]1CC[C@@H](C)CC1OC(=O)Cn1c(-c2ccc(C(F)(F)F)cc2)[n+](C)c2ccccc21 (some centres unmarked) |  | 100 to 1000 | 
CC(C)[C@@H]1CC[C@@H](C)CC1OC(=O)Cn1c(-c2ccc(Br)cc2)[n+](C)c2ccccc21 (some centres unmarked) |  | 100 to 1000 | 
CC(C)[C@@H]1CC[C@@H](C)CC1OC(=O)Cn1c(-c2cccc(Cl)c2)[n+](C)c2ccccc21 (some centres unmarked) |  | 100 to 1000 | 
CC(C)[C@@H]1CC[C@@H](C)CC1OC(=O)Cn1c(-c2ccc(Cl)c(C(F)(F)F)c2)[n+](C)c2ccccc21 (some centres unmarked) |  | 100 to 1000 | 
CC(C)[C@@H]1CC[C@@H](C)CC1OC(=O)Cn1c(-c2ccc(C(C)(C)C)cc2)[n+](C)c2ccccc21 (some centres unmarked) |  | < 100 | 
CC(C)[C@@H]1CC[C@@H](C)CC1OC(=O)Cn1c(-c2ccc(OC(C)(C)C)cc2)[n+](C)c2ccccc21 (some centres unmarked) |  | < 100 | 
CCc1n(CC(=O)OC23CC4CC(CC(C4)C2)C3)c2ccccc2[n+]1C |  | 1000 to 5000 | 
CC(C)[C@@H]1CC[C@@H](C)CC1OC(=O)Cn1c(-c2ccc(N3CCCC3)cc2)[n+](C)c2ccccc21 (some centres unmarked) |  | < 100 | 
CC(C)[C@@H]1CC[C@@H](C)CC1OC(=O)Cn1c(-c2ccc(N3CCCCC3)cc2)[n+](C)c2ccccc21 (some centres unmarked) |  | < 100 | 

— patent US20180354909A1, “SUBSTITUTED BENZIMIDAZOLIUM, PYRIDO-IMIDAZOLIUM, OR PYRAZINO-IMIDAZOLIUM COMPOUNDS AS CHEMOTHERAPEUTICS” (The Board of Regents of the University of Texas System, priority 2015, published 2018)
